Source: US20090197880A1 (Genelabs Technologies, Inc., priority 2007, published 2009)

Assay: HCV replicon assay (luciferase) in ET (Huh-lucubineo-ET) cell line
Type: cell-based
Conditions: Hepatitis C virus; tested at 10 μM; inhibition of replication relative to no compound control; ET replicon cells, luciferase 48-72 hours; read-out: % inhition at 10 μM
Description: A cell line, ET (Huh-lucubineo-ET) was used for screening of compounds, or pharmaceutically acceptable salts or solvates, described herein for inhibition of HCV RNA dependent RNA polymerase. The ET cell line was stably transfected with RNA transcripts harboring a I389luc-ubi-neo/NS3-3′/ET; replicon with firefly luciferase-ubiquitin-neomycin phosphotransferase fusion protein and EMCV-IRES driven NS3-5B polyprotein containing the cell culture adaptive mutations (E1202G; T1280I; K1846T) (Krieger at al, 2001 and unpublished). The ET cells were grown in DMEM, supplemented with 10% fetal calf serum, 2 mM Glutamine, Penicillin (100 IU/mL)/Streptomycin (100 μg/mL), 1× nonessential amino acids, and 250 μg/mL G418 (“Geneticin”). They were all available through Life Technologies (Bethesda, Md.). The cells were plated at 0.5−1.0×10^4 cells/well in the 96 well plates and incubated for 24 hrs before adding the test compounds. […] Luciferase activity was measured 48-72 hours later by adding a lysis buffer and the substrate (Catalog number Glo-lysis buffer E2661 and Bright-Glo luciferase system E2620 Promega, Madison, Wis.). Cells should not be too confluent during the assay. Percent inhibition of replication was plotted relative to no compound control. Under the same condition, cytotoxicity of the compounds was determined using cell proliferation reagent, WST-1 (Roche, Germany). The compounds showing antiviral activities, but no significant cytotoxicities were chosen to determine the EC50 and TC50, the effective concentration and toxic concentration at which 50% of the maximum inhibition is observed. For these determinations, 6 dilutions of each compound were used. Compounds were typically diluted 3 fold to span a concentration range of 250 fold. EC50 and similarly TC50 values were calculated by fitting % inhibition at each concentration to the following equation:
% inhibition=100%/[(EC50/[I])^b+1]
where b is Hill's coefficient.

Compound | inhibition at 10 µM
CCCOc1ccc(-c2cc(Cn3cc4nc(-c5ccco5)nc-4cn3)on2)cc1 [Compound 144, 2-Furan-2-yl-5-[3-(4-propoxy-phenyl)-isoxazol-5-ylmethyl]-5H-imidazo[4,5-d]pyridazine] | 92.2%
CCCOc1ccc(-c2cc(Cn3cc4nc(-c5ccc(F)cc5)nc-4cn3)on2)cc1 [Compound 145, 2-(4-Fluoro-phenyl)-5-[3-(4-propoxy-phenyl)-isoxazol-5-ylmethyl]-5H-imidazo[4,5-d]pyridazine] | 85.6%
Fc1cccc(-c2nc3cnn(Cc4cc(-c5ccc(OCc6ccncc6)cc5)no4)cc-3n2)c1F [Compound 148, 2-(2,3-Difluoro-phenyl)-5-{3-[4-(pyridin-4-ylmethoxy)-phenyl]-isoxazol-5-ylmethyl}-H-imidazo[4,5-d]pyridazine] | 100%
Cc1nc(C)c(-c2cc(Cn3cc4nc(-c5cccc(F)c5F)nc-4cn3)on2)s1 [Compound 149, 2-(2,3-Difluoro-phenyl)-5-[3-(2,4-dimethyl-thiazol-5-yl)-isoxazol-5-ylmethyl]-5H-imidazo[4,5-d]pyridazine] | 43.7%
Fc1cccc(-c2nc3cnn(Cc4cc(-c5ccc(CN6CCCCC6)cc5)no4)cc-3n2)c1F [Compound 157, 2-(2,3-Difluoro-phenyl)-5-[3-(4-piperidin-1-ylmethyl-phenyl)-isoxazol-5-ylmethyl]-5H-imidazo[4,5-d]pyridazine] | 9.99%
Fc1cccc(-c2nc3cnn(Cc4cc(-c5ccc(OCCN6CCCC6)cc5)no4)cc-3n2)c1F [Compound 158, 2-(2,3-Difluoro-phenyl)-5-{3-[4-(2-pyrrolidin-1-yl-ethoxy)-phenyl]-isoxazol-5-ylmethyl}-5H-imidazo[4,5-d]pyridazine] | 27.9%
O=C(O)c1cccc(COc2ccc(-c3cc(Cn4cc5nc(-c6cccc(F)c6F)nc-5cn4)on3)cc2)c1 [Compound 159, 3-(4-{5-[2-(2,3-Difluoro-phenyl)-imidazo[4,5-d]pyridazin-5-ylmethyl]-isoxazol-3-yl}-phenoxymethyl)-benzoic Acid] | 49.4%
Fc1ccc(-c2cc(Cn3cc4nc(-c5cccc(F)c5F)nc-4cn3)on2)c(OC(F)(F)F)c1 [Compound 160, 2-(2,3-Difluoro-phenyl)-5-[3-(4-fluoro-2-trifluoromethoxy-phenyl)-isoxazol-5-ylmethyl]-5H-imidazo[4,5-d]pyridazine] | 61.5%
CN(C)CCOc1ccc(-c2cc(Cn3cc4nc(-c5cccc(F)c5F)nc-4cn3)on2)cc1 [Compound 161, [2-(4-{5-[2-(2,3-Difluoro-phenyl)-imidazo[4,5-d]pyridazin-5-ylmethyl]-isoxazol-3-yl}-phenoxy)-ethyl]-dimethyl-amine] | 54.6%
O=C(O)c1ccc(COc2ccc(-c3cc(Cn4cc5nc(-c6cccc(F)c6F)nc-5cn4)on3)cc2)cc1 [Compound 162, 4-(4-{5-[2-(2,3-Difluoro-phenyl)-imidazo[4,5-d]pyridazin-5-ylmethyl]-isoxazol-3-yl}-phenoxymethyl)-benzoic Acid] | 66.9%
COc1cc(-c2cc(Cn3cc4nc(-c5cccc(F)c5F)nc-4cn3)on2)ccc1OC(F)F [Compound 163, 5-[3-(4-Difluoromethoxy-3-methoxy-phenyl)-isoxazol-5-ylmethyl]-2-(2,3-difluoro-phenyl)-5H-imidazo[4,5-d]pyridazine] | 62%
Fc1cccc(-c2nc3cnn(Cc4cc(-c5cc(C(F)(F)F)cc(C(F)(F)F)c5)no4)cc-3n2)c1F [Compound 164, 5-[3-(3,5-Bis-trifluoromethyl-phenyl)-isoxazol-5-ylmethyl]-2-(2,3-difluoro-phenyl)-5H-imidazo[4,5-d]pyridazine] | 90.1%
Fc1cccc(-c2nc3cnn(Cc4cc(-c5ccc(OC(F)(F)F)c(Cl)c5)no4)cc-3n2)c1F [Compound 165, 5-[3-(3-Chloro-4-trifluoromethoxy-phenyl)-isoxazol-5-ylmethyl]-2-(2,3-difluoro-phenyl)-5H-imidazo[4,5-d]pyridazine] | 79.4%
COc1ccc(-c2cc(Cn3cc4nc(-c5cccc(F)c5F)nc-4cn3)on2)c(O)c1 [Compound 166, 2-{5-[2-(2,3-Difluoro-phenyl)-imidazo[4,5-d]pyridazin-5-ylmethyl]-isoxazol-3-yl}-5-methoxy-phenol] | 70.7%
Fc1cccc(-c2nc3cnn(Cc4cc(-c5ccc6c(c5)OC(F)(F)O6)no4)cc-3n2)c1F [Compound 167, 5-[3-(2,2-Difluoro-benzo[1,3]dioxol-5-yl)-isoxazol-5-ylmethyl]-2-(2,3-difluoro-phenyl)-5H-imidazo[4,5-d]pyridazine] | 93.1%
Fc1cc(-c2cc(Cn3cc4nc(-c5cccc(F)c5F)nc-4cn3)on2)ccc1OC(F)(F)F [Compound 168, 2-(2,3-Difluoro-phenyl)-5-[3-(3-fluoro-4-trifluoromethoxy-phenyl)-isoxazol-5-ylmethyl]-5H-imidazo[4,5-d]pyridazine] | 99.2%
Fc1cccc(-c2nc3cnn(Cc4cc(-c5ccc(OC(F)F)cc5OC(F)F)no4)cc-3n2)c1F [Compound 169, 5-[3-(2,4-Bis-difluoromethoxy-phenyl)-isoxazol-5-ylmethyl]-2-(2,3-difluoro-phenyl)-5H-imidazo[4,5-d]pyridazine] | 83.6%
Fc1cccc(-c2nc3cnn(Cc4cc(-c5ccc(OC(F)(F)C(F)C(F)(F)F)cc5)no4)cc-3n2)c1F (centres unmarked) [Compound 170, 2-(2,3-Difluoro-phenyl)-5-{3-[4-(1,1,2,3,3,3-hexafluoro-propoxy)-phenyl]-isoxazol-5-ylmethyl}-5H-imidazo[4,5-d]pyridazine] | 97.9%
COc1ccc(-c2cc(Cn3cc4nc(-c5cccc(F)c5F)nc-4cn3)on2)c(C)c1 [Compound 171, 2-(2,3-Difluoro-phenyl)-5-[3-(4-methoxy-2-methyl-phenyl)-isoxazol-5-ylmethyl]-5H-imidazo[4,5-d]pyridazine] | 91.5%
Fc1cccc(-c2nc3cnn(Cc4cc(-c5ccc(OCc6ccccn6)cc5)no4)cc-3n2)c1F [Compound 172, 2-(2,3-Difluoro-phenyl)-5-{3-[4-(pyridin-2-ylmethoxy)-phenyl]-isoxazol-5-ylmethyl}-5H-imidazo[4,5-d]pyridazine] | 95.4%
Fc1cccc(-c2nc3cnn(Cc4cc(-c5ccc(OCc6ccccc6)cc5)no4)cc-3n2)c1F [Compound 173, 5-[3-(4-Benzyloxy-phenyl)-isoxazol-5-ylmethyl]-2-(2,3-difluoro-phenyl)-5H-imidazo[4,5-d]pyridazine] | 98.7%
COc1ccc(-c2cc(Cn3cc4nc(-c5cccc(F)c5F)nc-4cn3)on2)c(C(F)(F)F)c1 [Compound 174, 2-(2,3-Difluoro-phenyl)-5-[3-(4-methoxy-2-trifluoromethyl-phenyl)-isoxazol-5-ylmethyl]-5H-imidazo[4,5-d]pyridazine] | 99.7%
Fc1cccc(-c2nc3cnn(Cc4cc(-c5ccc(OC(F)(F)C(F)F)cc5)no4)cc-3n2)c1F [Compound 175, 2-(2,3-Difluoro-phenyl)-5-{3-[4-(1,1,2,2-tetrafluoro-ethoxy)-phenyl]-isoxazol-5-ylmethyl}-5H-imidazo[4,5-d]pyridazine] | 99.8%
Fc1cccc(-c2nc3cnn(Cc4cc(-c5ccc(OC(F)F)cc5)no4)cc-3n2)c1F [Compound 176, 5-[3-(4-Difluoromethoxy-phenyl)-isoxazol-5-ylmethyl]-2-(2,3-difluoro-phenyl)-5H-imidazo[4,5-d]pyridazine] | 99.8%
Cc1cc(OC(F)(F)F)ccc1-c1cc(Cn2cc3nc(-c4cccc(F)c4F)nc-3cn2)on1 [Compound 177, 2-(2,3-Difluoro-phenyl)-5-[3-(2-methyl-4-trifluoromethoxy-phenyl)-isoxazol-5-ylmethyl]-5H-imidazo[4,5-d]pyridazine] | 99.6%
Fc1cccc(-c2nc3cnn(Cc4cc(-c5ccc(COc6cccnc6)cc5)no4)cc-3n2)c1F [Compound 178, 2-(2,3-Difluoro-phenyl)-5-{3-[4-(pyridin-3-yloxymethyl)-phenyl]-isoxazol-5-ylmethyl}-5H-imidazo[4,5-d]pyridazine] | 98.7%
Fc1cccc(-c2nc3cnn(Cc4cc(-c5ccc(OCc6cccnc6)cc5)no4)cc-3n2)c1F [Compound 179, 2-(2,3-Difluoro-phenyl)-5-{3-[4-(pyridin-3-ylmethoxy)-phenyl]-isoxazol-5-ylmethyl}-5H-imidazo[4,5-d]pyridazine] | 99.9%
Cc1csc(-c2cc(Cn3cc4nc(-c5cccc(F)c5F)nc-4cn3)on2)n1 [Compound 180, 2-(2,3-Difluoro-phenyl)-5-[3-(4-methyl-thiazol-2-yl)-isoxazol-5-ylmethyl]-5H-imidazo[4,5-d]pyridazine] | 83.3%
Cc1nc(-c2cc(Cn3cc4nc(-c5cccc(F)c5F)nc-4cn3)on2)c(C)o1 [Compound 185, 2-(2,3-Difluoro-phenyl)-5-[3-(2,5-dimethyl-oxazol-4-yl)-isoxazol-5-ylmethyl]-5H-imidazo[4,5-d]pyridazine] | 47.8%
